Test results from patent US20240279214A1, “ALPHA4 BETA7 INEGRIN ANTAGONISTS AND USES THEREOF” (XinThera, Inc., priority 2022, published 2024).

Target: T1, a4b7 integrin interaction with MadCAM-1 (Homo sapiens, UniProt P13612+P26010)
T1 construct: capture of a4b7 integrin expressing cells, RPMI8866; endogenous in cells; host or cells: RPMI8866
T1 sequence (P13612 34-1032): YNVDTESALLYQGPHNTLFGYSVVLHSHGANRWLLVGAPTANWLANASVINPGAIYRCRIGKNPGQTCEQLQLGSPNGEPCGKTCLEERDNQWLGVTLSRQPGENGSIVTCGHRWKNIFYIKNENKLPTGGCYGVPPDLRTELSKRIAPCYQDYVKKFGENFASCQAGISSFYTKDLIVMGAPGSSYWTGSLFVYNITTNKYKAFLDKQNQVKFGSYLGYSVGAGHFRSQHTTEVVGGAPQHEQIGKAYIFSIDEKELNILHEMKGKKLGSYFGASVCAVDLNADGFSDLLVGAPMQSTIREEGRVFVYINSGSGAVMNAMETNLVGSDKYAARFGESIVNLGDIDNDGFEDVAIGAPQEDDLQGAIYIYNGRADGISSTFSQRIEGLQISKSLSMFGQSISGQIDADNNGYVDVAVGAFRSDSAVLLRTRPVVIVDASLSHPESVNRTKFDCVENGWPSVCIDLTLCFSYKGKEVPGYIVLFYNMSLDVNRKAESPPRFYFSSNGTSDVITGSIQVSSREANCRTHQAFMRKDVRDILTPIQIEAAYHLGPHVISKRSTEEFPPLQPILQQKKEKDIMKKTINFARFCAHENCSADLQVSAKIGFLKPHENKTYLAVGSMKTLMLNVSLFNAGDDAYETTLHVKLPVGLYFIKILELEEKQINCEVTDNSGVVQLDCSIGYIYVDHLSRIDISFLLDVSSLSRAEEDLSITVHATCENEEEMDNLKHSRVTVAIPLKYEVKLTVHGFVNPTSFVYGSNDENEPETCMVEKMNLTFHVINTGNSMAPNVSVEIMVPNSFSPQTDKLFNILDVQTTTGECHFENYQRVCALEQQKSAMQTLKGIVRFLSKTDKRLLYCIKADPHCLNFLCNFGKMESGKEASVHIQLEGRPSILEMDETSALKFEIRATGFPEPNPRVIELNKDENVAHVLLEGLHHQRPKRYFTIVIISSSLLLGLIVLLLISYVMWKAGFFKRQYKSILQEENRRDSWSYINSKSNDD
T1 sequence (P26010 20-798): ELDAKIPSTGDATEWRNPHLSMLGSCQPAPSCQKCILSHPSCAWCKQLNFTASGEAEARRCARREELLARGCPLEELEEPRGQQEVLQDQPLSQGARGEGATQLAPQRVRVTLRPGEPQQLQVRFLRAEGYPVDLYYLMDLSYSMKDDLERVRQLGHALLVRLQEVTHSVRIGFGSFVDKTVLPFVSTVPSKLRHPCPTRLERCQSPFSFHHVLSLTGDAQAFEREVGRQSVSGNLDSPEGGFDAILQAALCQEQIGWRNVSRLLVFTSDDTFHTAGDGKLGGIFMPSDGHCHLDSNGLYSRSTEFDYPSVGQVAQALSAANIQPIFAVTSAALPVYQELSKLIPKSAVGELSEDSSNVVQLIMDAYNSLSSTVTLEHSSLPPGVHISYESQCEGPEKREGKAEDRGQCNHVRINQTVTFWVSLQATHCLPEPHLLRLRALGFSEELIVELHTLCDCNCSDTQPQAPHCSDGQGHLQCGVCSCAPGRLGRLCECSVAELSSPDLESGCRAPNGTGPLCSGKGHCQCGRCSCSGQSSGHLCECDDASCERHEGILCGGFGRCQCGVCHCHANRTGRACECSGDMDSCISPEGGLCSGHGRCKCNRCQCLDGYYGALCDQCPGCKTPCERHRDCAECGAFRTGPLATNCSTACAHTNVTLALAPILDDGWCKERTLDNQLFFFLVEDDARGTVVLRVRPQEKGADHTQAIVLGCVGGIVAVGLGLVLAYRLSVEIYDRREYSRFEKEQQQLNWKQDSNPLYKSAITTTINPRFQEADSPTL
Assay: a4b7 Cell Capture Assay (RPMI8866 cells on MAdCAM-1 Fc coated plates)
Assay type: cell-based
Details: 50% human serum, 1 mM MgCl2, 1 hour incubation, CellTiter-Glo luminescence, read-out: a4B7 cell capture assay RMPI8866-MadCAM EC50
Experimental: The potency of inhibitors in preventing a4b7 integrin interaction with MadCAM-1 was measured by monitoring the capture of a4b7 integrin expressing cells, RPMI8866, on recombinant human MAdCAM-1 Fc chimera protein-coated plates. The protein was a fusion between human MAdCAM-1 (Met1-Gln333, Accession #AAY82472) and human IgG1 (Pro100-Lys330)] (R&D Systems, Catalog #6056-MC). 96-well plates (Thermofisher, Catalog #136102) were coated with the recombinant protein by dispensing 100 μL (1.0 μg/mL) per well. After a quick spin to settle down the coating solution using a plate centrifuge, plates were incubated overnight at 4° C. in a moisture chamber. On Day 2, the plates were washed with PBS using a Bluecatbio Blue®Washer (GentleSpin wash, 3 cycles, pressure=1, volume 150 uL). Blocking solution (1.0% BSA in PBS, Sigma, Catalog #A7979) was then added at 200 uL/well, and the plates were quickly spun to settle down blocking buffer and incubated in cell culture incubator at 37° C. and 5% CO2 for 1 hour. The plates were then washed with 0.1% BSA in PBS using a Bluecatbio Blue®Washer (GentleSpin wash, 3 cycles, pressure=1, volume 150 uL). RPMI8866 cells suspended in assay medium (1 mM MgCl2 25 mM HEPES and 50% human serum, Sigma, Catalog #H4522) at a density of 1.0×10^6 cells/mL were added at 100 uL/well. Each compound evaluated was prepared as a DMSO stock solution. Test compounds were evaluated with a 9-point serial dilution curve (1000, 333.3, 111.1, 55.6, 27.8, 13.9, 6.9, 2.3, and 0.77 nM)) and were added to the plates using a Tecan D.30e Digita dispenser, the dispensed stock is 100 nL and the final DMSO concentration is 0.1%. Potent compounds were re-evaluated at a new 9-point serial dilution curve (100, 33.3, 11.1, 5.6, 2.8, 1.4, 0.69, 0.23, and 0.08 nM). Each titration curves were performed in triplicate on the same plate, and most of compounds were retested in different dates multiple times. The plates were shaken at 300 rpm on orbital plate shaker for 3 minutes to mix the cells and compounds, quickly spun to settle the cells and solution, and incubated in cell culture incubator at 37° C. and 5% CO2. After 1 hour incubation, the unbound cells were washed away with RPMI1640 medium supplemented with 1 mM MgCl2 and 1% BSA) (wash buffer) using a Bluecatbio Blue®Washer (MagbeadsSpin wash, 1 cycle, pressure 1, volume=150 uL). After wash buffer removal, A mixture of wash buffer/CellTiter-Glo® Reagent (Pormega, catalog #G7573) at 1:1 (V/V) was added at volume of 100 uL to each well. The plates were placed in a chamber at 25° C. and incubated for 30 minutes. Luminescence was recorded using a Envision plate reader 2105 according to CellTiter-Glo protocol.
The mean luminescence signals from negative control wells without MadCAM-1 coating and compound treatment (cells only) was defined as 100% binding inhibition, and the mean luminescence signals from positive control wells with MadCAM-1 coating but without compound treatment (MadCAM-1 and cells only) was defined as 0% binding inhibition. The luminescence signals from other compound treated wells were normalized in percentage scale accordingly. The normalized mean % inhibition data were plotted against logarithmic compound concentration in nanomolar and were fitted with 4-parameter logistic model to obtain IC50 for each compound.

Compared with `Cc1cc2cc(c1F)[C@H](CC(=O)O)NC(=O)[C@@H](n1cc(CCN3CC(F)C3)cc(C)c1=O)c1cc(ccc1F)Oc1cccc(C)c1-2` (single isomer, unassigned) [Example 66], `Cc1cccc2c1-c1cc(C(F)F)c(F)c(c1)[C@H](CC(=O)O)NC(=O)[C@@H](n1cc(CCN3CC(F)C3)c(C(F)(F)F)cc1=O)c1cc(ccc1F)O2` (relative stereo) [Example 37, [(14R*,17S)-20-(difluoromethyl)-12,19-difluoro-14-{5-[2-(3-fluoroazetidin-1-yl)ethyl]-2-oxo-4-(trifluoromethyl)pyridin-1-yl}-3-methyl-15-oxo-8-oxa-16-azatetracyclo[16.3.1.1^{9,13}.0^{2,7}]tricosa-1(22),2(7),3,5,9,11,13(23),18,20-nonaen-17-yl]acetic acid] is 3.2-fold higher in EC50: 0.4 nM for the first, 1.3 nM for the second.

`Cc1cccc2c1-c1cc(C3CC3)c(F)c(c1)[C@H](CC(=O)O)NC(=O)[C@@H](n1ccc(C(F)(F)F)cc1=O)c1cc(ccc1F)CO2` (single isomer, unassigned) [Example 78] and `Cc1cc2cc(c1F)[C@H](CC(=O)O)NC(=O)[C@@H](n1ccc(C(F)(F)F)c(Cl)c1=O)c1cc(ccc1F)COc1cccc(C)c1-2` (relative stereo) [Example 79, [(15R*,18S)-15-[3-chloro-2-oxo-4-(trifluoromethyl)pyridin-1-yl]-13,20-difluoro-3,21-dimethyl-16-oxo-8-oxa-17-azatetracyclo[17.3.1.1^{10,14}.0^{2,7}]tetracosa-1(23),2(7),3,5,10,12,14(24),19,21-nonaen-18-yl]acetic acid] cannot be ordered by EC50: 360 nM for the first, greater than 100 nM for the second.

Compared with `Cc1cc2cc(c1F)[C@H](CC(=O)O)NC(=O)[C@@H](n1cc(CCN3CC(F)C3)c(C(F)(F)F)cc1=O)c1cc(ccc1F)Oc1cc(C#N)cc(C)c1-2` (single isomer, unassigned) [Example 46], `Cc1cc2cc(c1F)[C@H](CC(=O)O)NC(=O)[C@@H](n1cc(CCN3CC(F)C3)c(C(F)(F)F)cc1=O)c1cc(ccc1F)Oc1ccc(F)c(C)c1-2` (relative stereo) [Example 30, [(14R*,17S)-4,12,19-trifluoro-14-{5-[2-(3-fluoroazetidin-1-yl)ethyl]-2-oxo-4-(trifluoromethyl)pyridin-1-yl}-3,20-dimethyl-15-oxo-8-oxa-16-azatetracyclo[16.3.1.1^{9,13}.0^{2,7}]tricosa-1(22),2(7),3,5,9,11,13(23),18,20-nonaen-17-yl]acetic acid] is 1.6-fold higher in EC50: 1.6 nM for the first, 2.6 nM for the second. The first is the more potent here.

`Cc1cc2cc(c1F)[C@H](CC(=O)O)NC(=O)[C@@H](n1cc(CCN3CC(F)C3)c(C(F)(F)F)cc1=O)c1cc(ccc1F)COc1ccc(F)c(C)c1-2` (single isomer, unassigned) [Example 61] and `Cc1cc2cc(c1F)[C@H](CC(=O)O)NC(=O)[C@@H](n1cc(CCN3CC(F)C3)c(C(F)(F)F)cc1=O)c1cc(ccc1F)Oc1nn(C)c(C)c1-2` (relative stereo) [Example 40, rel-[(13S,16S)-11,18-difluoro-13-{5-[2-(3-fluoroazetidin-1-yl)ethyl]-2-oxo-4-(trifluoromethyl)pyridin-1-yl}-3,4,19-trimethyl-14-oxo-7-oxa-4,5,15-triazatetracyclo[15.3.1.1^{8,12}.0^{2,6}]docosa-1(21),2,5,8,10,12(22),17,19-octaen-16-yl]acetic acid] are the same in EC50: 42 nM for the first, 42 nM for the second.

First: Cc1cc2cc(c1F)[C@H](CC(=O)O)NC(=O)[C@@H](n1cc(CCN3CC(F)C3)c(C(F)(F)F)cc1=O)c1cc(ccc1F)Oc1nn(C)cc1-2 (single isomer, unassigned) [Example 43]
Second: Cc1cc2cc(c1F)[C@H](CC(=O)O)NC(=O)[C@@H](n1cc(CCN3CC(F)C3)c(C(F)(F)F)cc1=O)c1cc(cc(C(F)(F)F)c1)Oc1cccc(C)c1-2 (relative stereo) [Example 22, [(14R*,17S)-19-fluoro-14-{5-[2-(3-fluoroazetidin-1-yl)ethyl]-2-oxo-4-(trifluoromethyl)pyridin-1-yl}-3,20-dimethyl-15-oxo-11-(trifluoromethyl)-8-oxa-16-azatetracyclo[16.3.1.1^{9,13}.0^{2,7}]tricosa-1(22),2(7),3,5,9,11,13(23),18,20-nonaen-17-yl]acetic acid]
The EC50 of the first is 48-fold higher: 480 nM for the first, 9.9 nM for the second. The second is the more potent here.
